Data taken from patent publication US8168651B2, “Protein kinase modulators” (Cylene Pharmaceuticals, Inc., priority 2008, dated 2012).

Key:
Assay in all cases: Standardized radiometric kinase assays, percentage of activity at 0.5 μM;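 note: Read-out is ³³P-labelled substrate protein phosphorylated by each kinase, captured on filters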
[1] = target: each individual kinase of the panel (Homo sapiens, UniProt O75676)
[2] = target: each individual kinase of the panel (Homo sapiens, UniProt Q9Y6M4)
[3] = target: each individual kinase of the panel (Homo sapiens, UniProt P06239)
each individual kinase of the panel (Homo sapiens, UniProt P06239), sequence (P06239 2-509 limits assumed): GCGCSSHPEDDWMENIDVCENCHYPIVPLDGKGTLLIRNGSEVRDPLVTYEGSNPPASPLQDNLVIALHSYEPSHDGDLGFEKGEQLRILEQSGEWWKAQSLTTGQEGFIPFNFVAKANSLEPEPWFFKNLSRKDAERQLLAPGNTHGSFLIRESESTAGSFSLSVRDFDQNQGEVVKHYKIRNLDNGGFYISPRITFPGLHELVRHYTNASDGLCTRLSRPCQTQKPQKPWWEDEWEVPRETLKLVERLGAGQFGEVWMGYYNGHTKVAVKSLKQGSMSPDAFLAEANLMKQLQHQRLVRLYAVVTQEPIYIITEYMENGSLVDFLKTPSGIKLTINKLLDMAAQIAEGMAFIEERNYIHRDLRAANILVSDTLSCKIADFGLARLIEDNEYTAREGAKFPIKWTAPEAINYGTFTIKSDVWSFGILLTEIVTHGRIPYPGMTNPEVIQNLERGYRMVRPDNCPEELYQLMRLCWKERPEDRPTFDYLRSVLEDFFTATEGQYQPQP

[4] = target: each individual kinase of the panel (Homo sapiens, UniProt Q04912)
[5] = target: each individual kinase of the panel (Homo sapiens, UniProt Q00534)
[6] = target: each individual kinase of the panel (Homo sapiens, UniProt Q15375)
each individual kinase of the panel (Homo sapiens, UniProt Q15375), sequence (Q15375 28-998 limits assumed): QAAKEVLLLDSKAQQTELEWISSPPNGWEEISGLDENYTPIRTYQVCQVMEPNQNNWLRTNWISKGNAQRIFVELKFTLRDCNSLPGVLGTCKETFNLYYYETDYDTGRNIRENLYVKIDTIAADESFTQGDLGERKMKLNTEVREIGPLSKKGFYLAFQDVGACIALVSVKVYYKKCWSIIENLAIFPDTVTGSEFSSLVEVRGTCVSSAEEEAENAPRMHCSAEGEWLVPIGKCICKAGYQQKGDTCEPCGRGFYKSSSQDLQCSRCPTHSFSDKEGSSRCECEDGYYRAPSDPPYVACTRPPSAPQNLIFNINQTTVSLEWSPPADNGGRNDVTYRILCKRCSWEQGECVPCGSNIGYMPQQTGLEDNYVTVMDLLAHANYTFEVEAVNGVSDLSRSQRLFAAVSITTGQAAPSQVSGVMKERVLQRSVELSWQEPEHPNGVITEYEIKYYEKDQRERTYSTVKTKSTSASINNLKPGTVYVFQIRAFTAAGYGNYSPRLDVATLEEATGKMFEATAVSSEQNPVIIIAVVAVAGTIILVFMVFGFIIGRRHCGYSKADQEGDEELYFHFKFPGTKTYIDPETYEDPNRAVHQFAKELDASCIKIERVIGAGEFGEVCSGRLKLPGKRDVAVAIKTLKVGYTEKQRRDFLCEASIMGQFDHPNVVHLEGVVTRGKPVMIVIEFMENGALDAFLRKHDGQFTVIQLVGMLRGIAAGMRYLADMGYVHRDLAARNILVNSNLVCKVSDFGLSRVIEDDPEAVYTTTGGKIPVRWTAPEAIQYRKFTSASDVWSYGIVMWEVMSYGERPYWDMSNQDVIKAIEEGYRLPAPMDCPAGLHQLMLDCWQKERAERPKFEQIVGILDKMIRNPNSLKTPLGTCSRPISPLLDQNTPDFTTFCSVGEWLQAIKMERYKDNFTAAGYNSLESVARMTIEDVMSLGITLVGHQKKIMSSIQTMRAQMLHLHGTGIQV

[7] = target: each individual kinase of the panel (Homo sapiens, UniProt P36888, D835Y)
[8] = target: each individual kinase of the panel (Homo sapiens, UniProt P19784)
[9] = target: each individual kinase of the panel (Homo sapiens, UniProt P16234)
[10] = target: each individual kinase of the panel (Homo sapiens, UniProt P49841)
[11] = target: each individual kinase of the panel (Homo sapiens, UniProt P07332)
[12] = target: each individual kinase of the panel (Homo sapiens, UniProt P11362)
each individual kinase of the panel (Homo sapiens, UniProt P11362), sequence (P11362 22-822 limits assumed): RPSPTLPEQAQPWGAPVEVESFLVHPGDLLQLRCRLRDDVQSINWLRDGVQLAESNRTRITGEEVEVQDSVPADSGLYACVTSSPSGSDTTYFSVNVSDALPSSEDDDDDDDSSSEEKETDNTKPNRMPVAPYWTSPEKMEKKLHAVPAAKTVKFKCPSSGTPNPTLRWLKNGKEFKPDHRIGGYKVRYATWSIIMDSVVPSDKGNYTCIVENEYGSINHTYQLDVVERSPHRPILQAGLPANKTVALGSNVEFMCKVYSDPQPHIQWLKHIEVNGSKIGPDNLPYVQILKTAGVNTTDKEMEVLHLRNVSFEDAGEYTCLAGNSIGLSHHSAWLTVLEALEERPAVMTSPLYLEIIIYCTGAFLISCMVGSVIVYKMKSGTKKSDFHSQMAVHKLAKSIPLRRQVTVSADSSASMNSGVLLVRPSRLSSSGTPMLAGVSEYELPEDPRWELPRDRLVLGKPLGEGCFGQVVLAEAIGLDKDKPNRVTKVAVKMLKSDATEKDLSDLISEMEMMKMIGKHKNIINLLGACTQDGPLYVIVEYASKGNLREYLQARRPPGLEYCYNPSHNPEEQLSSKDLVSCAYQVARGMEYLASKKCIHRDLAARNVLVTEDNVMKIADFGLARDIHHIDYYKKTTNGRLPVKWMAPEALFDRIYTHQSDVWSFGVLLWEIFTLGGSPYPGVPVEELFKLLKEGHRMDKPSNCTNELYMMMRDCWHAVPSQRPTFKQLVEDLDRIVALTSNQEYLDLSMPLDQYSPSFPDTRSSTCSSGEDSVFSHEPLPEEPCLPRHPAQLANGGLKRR

[13] = target: each individual kinase of the panel (Homo sapiens, UniProt P80192)
[14] = target: each individual kinase of the panel (Homo sapiens, UniProt Q9H4B4)
[15] = target: each individual kinase of the panel (Homo sapiens, UniProt P21802)
[16] = target: each individual kinase of the panel (Homo sapiens, UniProt Q04759)
[17] = target: each individual kinase of the panel (Homo sapiens, UniProt Q16832)
[18] = target: each individual kinase of the panel (Homo sapiens, UniProt Q14012)
[19] = target: each individual kinase of the panel (Homo sapiens, UniProt P24941)
[20] = target: each individual kinase of the panel (Homo sapiens, UniProt P35916)
each individual kinase of the panel (Homo sapiens, UniProt P35916), sequence (P35916 25-1363 limits assumed): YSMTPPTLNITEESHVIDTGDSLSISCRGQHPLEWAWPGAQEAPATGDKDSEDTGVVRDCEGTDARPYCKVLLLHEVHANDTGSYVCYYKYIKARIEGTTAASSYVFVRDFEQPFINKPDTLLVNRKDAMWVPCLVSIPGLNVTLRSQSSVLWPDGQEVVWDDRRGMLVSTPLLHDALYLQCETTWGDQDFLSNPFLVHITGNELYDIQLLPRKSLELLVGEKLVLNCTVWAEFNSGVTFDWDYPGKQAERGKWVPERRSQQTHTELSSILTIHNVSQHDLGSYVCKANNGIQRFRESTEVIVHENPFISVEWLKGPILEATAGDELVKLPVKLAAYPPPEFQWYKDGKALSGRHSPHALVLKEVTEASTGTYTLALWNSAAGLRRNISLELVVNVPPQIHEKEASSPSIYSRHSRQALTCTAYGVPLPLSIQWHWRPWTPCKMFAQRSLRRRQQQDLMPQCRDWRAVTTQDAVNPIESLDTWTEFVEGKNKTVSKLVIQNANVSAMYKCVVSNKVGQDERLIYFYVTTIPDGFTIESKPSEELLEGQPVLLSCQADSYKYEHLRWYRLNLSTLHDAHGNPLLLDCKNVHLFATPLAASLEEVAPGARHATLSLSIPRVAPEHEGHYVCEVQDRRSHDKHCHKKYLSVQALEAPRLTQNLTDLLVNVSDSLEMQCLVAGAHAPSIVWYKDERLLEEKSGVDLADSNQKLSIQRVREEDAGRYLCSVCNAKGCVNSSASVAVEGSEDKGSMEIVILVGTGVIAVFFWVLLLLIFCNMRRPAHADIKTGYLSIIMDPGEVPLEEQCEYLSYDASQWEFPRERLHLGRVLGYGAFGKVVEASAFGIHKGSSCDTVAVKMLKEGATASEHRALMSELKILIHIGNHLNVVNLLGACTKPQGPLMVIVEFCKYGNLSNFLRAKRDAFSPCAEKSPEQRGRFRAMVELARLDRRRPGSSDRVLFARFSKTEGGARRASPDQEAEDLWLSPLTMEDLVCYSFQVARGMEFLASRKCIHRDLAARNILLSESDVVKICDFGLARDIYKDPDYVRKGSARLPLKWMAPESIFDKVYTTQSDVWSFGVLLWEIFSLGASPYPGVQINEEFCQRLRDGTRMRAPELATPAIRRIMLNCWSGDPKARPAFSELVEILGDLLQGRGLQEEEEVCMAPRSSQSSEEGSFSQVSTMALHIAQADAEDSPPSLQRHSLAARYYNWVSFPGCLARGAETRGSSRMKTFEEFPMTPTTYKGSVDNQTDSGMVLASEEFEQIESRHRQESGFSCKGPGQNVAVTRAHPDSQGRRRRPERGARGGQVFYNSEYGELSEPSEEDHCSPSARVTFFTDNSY

[21] = target: each individual kinase of the panel (Homo sapiens, UniProt P07948)
each individual kinase of the panel (Homo sapiens, UniProt P07948), sequence (P07948 2-512 limits assumed): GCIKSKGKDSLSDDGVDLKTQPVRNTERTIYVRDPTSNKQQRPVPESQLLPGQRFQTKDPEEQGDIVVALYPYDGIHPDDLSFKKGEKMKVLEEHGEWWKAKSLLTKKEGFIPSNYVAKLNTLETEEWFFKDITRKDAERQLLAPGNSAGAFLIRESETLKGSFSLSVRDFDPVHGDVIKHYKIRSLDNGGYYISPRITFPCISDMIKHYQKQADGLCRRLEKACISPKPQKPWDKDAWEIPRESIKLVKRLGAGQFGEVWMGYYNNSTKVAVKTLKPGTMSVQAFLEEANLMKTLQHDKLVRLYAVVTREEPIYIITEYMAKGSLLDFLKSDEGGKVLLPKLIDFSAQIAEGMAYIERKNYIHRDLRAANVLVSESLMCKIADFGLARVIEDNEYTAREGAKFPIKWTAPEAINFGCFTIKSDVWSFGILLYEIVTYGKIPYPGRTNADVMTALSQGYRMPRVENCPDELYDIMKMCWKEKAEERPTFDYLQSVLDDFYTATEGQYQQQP

[22] = target: each individual kinase of the panel (Homo sapiens, UniProt P41240)
[23] = target: each individual kinase of the panel (Homo sapiens, UniProt P00533, L861Q)
[24] = target: each individual kinase of the panel (Homo sapiens, UniProt P16234, D842V)
[25] = target: each individual kinase of the panel (Homo sapiens, UniProt P17252)
[26] = target: each individual kinase of the panel (Homo sapiens, UniProt Q14680)
[27] = target: each individual kinase of the panel (Homo sapiens, UniProt P06493)

Structure (SMILES): NC(=O)c1ccc2c(c1)nc(Nc1cccc(Cl)c1)c1ccncc12 [drawing 1138]
- MSK2 percentage of activity [1]: 9%
- CK1 gamma 3 percentage of activity [2]: −5%
- LCK percentage of activity [3]: 79%
- RON percentage of activity [4]: −3%
- CDK6/cyclinD3 percentage of activity [5]: 6%
- EPHA7 percentage of activity [6]: 0%
- FLT3(D835Y) percentage of activity [7]: 99%
- CK2 alpha 2 percentage of activity [8]: 96%
- PDGFRA percentage of activity [9]: 5%
- GSK3B percentage of activity [10]: 26%
- FES percentage of activity [11]: −2%
- FGFR1 percentage of activity [12]: 17%
- MLK1 percentage of activity [13]: 49%
- PLK3 percentage of activity [14]: 0%
- FGFR2 percentage of activity [15]: 9%
- PRKCT percentage of activity [16]: 1%
- DDR2 percentage of activity [17]: 5%
- CAMK1 percentage of activity [18]: 4%
- CDK2/cyclin A percentage of activity [19]: 53%
- FLT4 percentage of activity [20]: 40%
- LYN percentage of activity [21]: 16%
- CSK percentage of activity [22]: 14%
- EGFR(L861Q) percentage of activity [23]: 70%
- PDGFRA (D842V) percentage of activity [24]: 64%
- PRKCA percentage of activity [25]: 1%
- MELK percentage of activity [26]: 73%
- CDK1/cyclinB percentage of activity [27]: 63%
